Measurements taken from US20150126611A1, “3,3-DIPHENYL-N-(1-PHENYLETHYL) PROPAN-1-AMINE: AS A NEW SELECTIVE LIGAND OF THE SIGMA-1 RECEPTORS, WITH ANTI-APOPTOTIC (CYTOPROTECTIVE) PROPERTIES AND PROTOTYPICAL ANTICANCER ACTIVITY” (priority 2012, published 2015).
pIC50: −log10 of the molar value.

Key:
[1] = system: scopolamine induced amnesia; assay: scopolamine induced amnesia; assay type: in vivo; conditions: mice
[2] = biological target: sigma-2 receptors (Homo sapiens, UniProt Q5BJF2); assay: binding to sigma-2 receptors; conditions: read-out: median concentrations of binding (IC50) for sigma-2 receptors
Chain of sigma-2 receptors (Q5BJF2 whole entry): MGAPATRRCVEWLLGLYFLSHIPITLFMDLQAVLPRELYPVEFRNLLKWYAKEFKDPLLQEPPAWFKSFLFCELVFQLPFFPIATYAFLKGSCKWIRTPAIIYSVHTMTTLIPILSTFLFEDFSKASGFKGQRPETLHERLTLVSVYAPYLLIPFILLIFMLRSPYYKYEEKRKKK

[3] = biological target: T1, M2 muscarinic receptors (Mus musculus, UniProt Q9ERZ4); assay: peripheral M2 muscarinic antagonism in mice; assay type: in vivo; conditions: 0.1 to 10 mg/kg, ip
T1 construct: from tissue; host or cells: living mice, peripheral tissues
T1 sequence (Q9ERZ4 1-466): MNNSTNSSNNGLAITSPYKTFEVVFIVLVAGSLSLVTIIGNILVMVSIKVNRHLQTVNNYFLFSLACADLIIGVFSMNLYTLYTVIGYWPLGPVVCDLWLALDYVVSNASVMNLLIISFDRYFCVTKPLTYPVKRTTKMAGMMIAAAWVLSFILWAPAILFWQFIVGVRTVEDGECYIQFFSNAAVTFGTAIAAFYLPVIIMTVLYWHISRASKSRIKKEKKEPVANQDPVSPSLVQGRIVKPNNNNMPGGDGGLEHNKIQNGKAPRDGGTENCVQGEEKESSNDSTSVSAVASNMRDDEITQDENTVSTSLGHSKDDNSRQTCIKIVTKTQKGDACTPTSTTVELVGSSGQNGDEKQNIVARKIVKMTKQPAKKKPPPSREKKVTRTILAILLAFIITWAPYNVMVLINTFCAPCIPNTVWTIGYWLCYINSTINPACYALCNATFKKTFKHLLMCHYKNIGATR

[4] = system: site-2 of the sodium channels; assay: affinity for site-2 of the sodium channels; assay type: binding
[5] = system: Aβ25-35 induced amnesia; assay: amyloid Aβ25-35 induced amnesia (Y-maze and step-through); assay type: in vivo, mice
Excerpt: Indeed, concerning the cytodegenerative diseases and more specifically the neurodegenerative diseases (Alzheimer, Huntington, Parkinson or Multiple Sclerosis), DPPA, in contrast to the symptomatic treatments used currently against the above diseases, antagonizes their pathophysiological causes ie., the endocellular biochemical stress and, concerning the neurons, also their fatal entry in the cell cycle. Of particular interest was the action of DPPA when it was coadministered with the inhibitors of the acetylcholinesterases (IAChEases) which are used as symptomatic drugs (principally Rivastigmine, Donepezil and Galantamine) against the Alzheimer's Disease (AD). […] Indeed, DPPA, via its antagonistic action on the M2 muscatinic autoreceptors of the brain cholinergic neurons (M2[−]), abolished the pro-neurodegenerative agonistic activity of the IAChEases on the hyperactivated (by AD or by the soluble Aβ25-35) cerebral M2 muscarinic autoreceptors, originating a new pharmacological approach (M2[−]) and (σ1[+]) against the neurodegenerative effects of Aβ25-35 in AD and also against the deleterious effect of the agonistic action of IAChEases on the M2 muscarinic brain autoreceptors, validating these drugs (IAChEases) as putative therapeutic agents against AD.

[6] = system: dizocilpine induced amnesia; assay: dizocilpine induced amnesia; assay type: in vivo; conditions: mice
[7] = system: Paclitaxel-induced neuropathic pain; assay: neuropathic pain by sensibilisation with Paclitaxel, formalin injection in hind paw; assay type: in vivo; conditions: po, mice
Protocol: Finally, in the experimental protocol of neuropathic pain by sensibilisation with Paclitaxel and evaluation of the neuropathic pain by injection of formalin in the hind paw of mice, the analgesic effect of DPPA was significative from 1.0 mg/kg (po) and was spectacular at higher doses (25 to 75 mg/kg, po). Indeed, the Paclitaxel+DPPA treated mice were less sensible to formalin than the control mice not treated with Paclitaxel.

[8] = biological target: sigma-1 receptors (Homo sapiens, UniProt Q99720); assay: binding to sigma-1 receptors; conditions: read-out: median concentrations of binding (IC50) for sigma-1 receptors
Chain of sigma-1 receptors (Q99720 whole entry): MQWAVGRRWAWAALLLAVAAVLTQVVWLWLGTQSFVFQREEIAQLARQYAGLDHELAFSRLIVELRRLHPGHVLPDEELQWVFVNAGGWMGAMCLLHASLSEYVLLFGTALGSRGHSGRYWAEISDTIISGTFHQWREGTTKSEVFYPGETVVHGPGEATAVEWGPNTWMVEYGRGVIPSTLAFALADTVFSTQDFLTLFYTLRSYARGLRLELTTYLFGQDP

[9] = system: mitochondrial toxicity of pentylenetetrazole (PTZ); assay: antagonism of pentylenetetrazole (PTZ) lethality in mice; assay type: in vivo; conditions: PTZ 130 mg/kg ip
Protocol: (§1) More important- at lower doses: 0,01 to 1,00 mg/kg, intraperitoneal (ip) in mice—the cytoprotective activity of DPPA obtained by antagonism of the endoplasmic reticulum stress (ER stress) and amelioration of the cytoprotective autophagic processus of the cells and, more specifically, of neurons (in the neurodegenerative diseases and eldery). […] These cytoprotective activities of DPPA were completed, specifically in neurons, by inhibiting their entry in the cell cycle, as this entry is always fatal for neurons. In contrast, concerning the cancer cells, the above inhibition triggered the apoptotic processus and their death.

[10] = as above; assay type: in vivo; conditions: PTZ 130 mg/kg ip, DPPA 3 mg/kg po
Protocol: as §1

[11] = system: immobility in forced swimming; conditions: po, mice, Porsolt; cited from earlier work
[12] = system: cancer cells; assay: anticancer activity in vitro and in vivo by inoculation of cancer cells in SCID mice; design: species or system immunosuppressed SCID mice
Excerpt: The anticancer activity of DPPA was studied in vitro and in vivo by inoculation of cancer cells in immunosuppressed SCID mice. […] Moreover, even when the neuropathic pain, induced by the anticancer drugs was installed, DPPA antagonized it, by inhibition of the hypersensitive neurons injured by the neurotoxicity of the above anticancer drugs.

[13] = system: colon, prostate, ovarian, pancreas and hepatic cancer cells; assay: in vitro anticancer activity; assay type: cell-based
[14] = biological target: T2, M3 muscarinic receptors (Mus musculus, UniProt Q9ERZ3); assay: peripheral M3 muscarinic antagonism in mice; assay type: in vivo; conditions: 0.1 to 10 mg/kg, ip
T2 construct: from tissue; host or cells: living mice, peripheral tissues
T2 sequence (Q9ERZ3 whole entry): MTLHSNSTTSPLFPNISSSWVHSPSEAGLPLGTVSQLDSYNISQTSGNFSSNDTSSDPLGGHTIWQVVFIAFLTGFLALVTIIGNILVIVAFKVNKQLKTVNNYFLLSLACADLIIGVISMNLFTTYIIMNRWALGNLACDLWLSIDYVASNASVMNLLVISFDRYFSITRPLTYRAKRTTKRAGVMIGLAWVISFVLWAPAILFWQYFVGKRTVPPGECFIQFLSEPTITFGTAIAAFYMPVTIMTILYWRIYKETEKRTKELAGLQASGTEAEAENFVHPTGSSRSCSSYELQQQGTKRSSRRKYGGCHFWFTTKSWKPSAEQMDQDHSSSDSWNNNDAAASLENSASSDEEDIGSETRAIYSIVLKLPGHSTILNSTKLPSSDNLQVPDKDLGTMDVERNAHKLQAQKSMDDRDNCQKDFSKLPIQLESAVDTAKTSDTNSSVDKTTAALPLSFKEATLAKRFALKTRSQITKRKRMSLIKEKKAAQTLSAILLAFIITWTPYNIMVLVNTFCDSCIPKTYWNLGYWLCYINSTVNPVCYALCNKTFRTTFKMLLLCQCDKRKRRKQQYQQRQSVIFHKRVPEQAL

## CC(NCCC(c1ccccc1)c1ccccc1)c1ccccc1 (centres unmarked) [DPPA, 3,3-diphenyl-N-(1-phenylethyl) propan-1-amine]
[1]
  antagonism of scopolamine induced amnesia: antagonism
[2]
  pIC50: 6.07 to 6.14
[3]
  effects on M2 muscarinic receptors in the periphery: antagonistic effects
[4]
  pIC50: 6.54
[5]; intracerebral soluble Aβ25-35, mice, Y-maze and step-through
  antiamnesic action on coadministration with IAChEases (Rivastigmine or Donepezil): higher than the sum of the antiamnesic effects of DPPA and IAChEases
[5]; mice
  antagonism of amyloids Aβ25-35 induced amnesia: antagonism
[6]
  antagonism of dizocilpine induced amnesia: antagonism
[7]; 25 to 75 mg/kg
  analgesic effect at higher doses: spectacular
[7]; Paclitaxel sensibilisation, formalin in hind paw
  dose from which the analgesic effect was significative: ≥ 1.0 mg/kg
[8]
  pIC50: 7.74 to 7.85
[9]; DPPA 10 mg/kg po
  increase of the latency of lethality of PTZ: 10 fold
[9]; DPPA 30 mg/kg po
  increase of the latency of lethality of PTZ: 20 fold
[10]
  increase of the latency of lethality of PTZ: 5 fold
[11]
  dose at which anti-immobility properties are significative: more than 10 mg/kg
[12]
  anticancer activity versus clinically used anticancer drugs: lower than those of the clinically used anticancer drugs
[13]
  anticancer activity on cancer cells in vitro: demonstrated the anticancer activity
[14]
  effects on M3 muscarinic receptors in the periphery: antagonistic effects
